Reference: BindingDB's records for patent US10882866 (Boehringer Ingelheim International GmbH, 2021)

Target: T1, E3 ubiquitin-protein ligase Mdm2 [23-117] (Human, UniProt Q00987)
T1 construct: 23-117
Assay: Inhibition AlphaScreen Assay
Experimental: A mix consisting of 20 nM GST-MDM2 protein (aa 23-117) and 20 nM biotinylated p53 wt peptide (encompassing aa 16-27 of wt human p53, amino acid sequence QETFSDLWKLLP-Ttds-Lys-Biotin, molecular weight 2132.56 g/mol) is prepared in assay buffer (50 mM Tris/HCl pH 7.2; 120 mM NaCl; 0.1% bovine serum albumin (BSA); 5 mM dithiothreitol (DTT); 1 mM ethylenediaminetetraacetic acid (EDTA); 0.01% Tween 20). 30 μL of the mix is added to the compound dilutions and incubated for 15 min at rt while gently shaking the plate at 300 rounds per minute (rpm). Subsequently, 15 μL of premixed AlphaLISA Glutathione Acceptor Beads and AlphaScreen Streptavidin Donor Beads from PerkinElmer (in assay buffer at a concentration of 10 μg/mL each) are added and the samples are incubated for 30 min at rt in the dark (shaking 300 rpm). Afterwards, the signal is measured in a PerkinElmer Envision HTS Multilabel Reader using the AlphaScreen protocol from PerkinElmer.Each plate contains negative controls where biotinylated p53-peptide and GST-MDM2 are left out and replaced by assay buffer. Negative control values are entered as low basis value when using the software GraphPad Prism for calculations.

T1 sequence (Q00987 23-117): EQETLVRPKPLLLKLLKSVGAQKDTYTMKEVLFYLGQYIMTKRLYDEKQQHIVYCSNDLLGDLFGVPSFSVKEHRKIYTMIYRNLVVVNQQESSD

In the case of O=C(O)c1ccc2c(c1)nc1n2CC[C@H]2[C@@H]1[C@H](c1cccc(Cl)c1F)[C@]1(C(=O)Nc3cc(Cl)ccc31)N2CC1CC1 [US10882866, Example Ib-171], the IC50 is reported as 10 nM.
